The record followed here is patent US20240246918A1, “COMPOUNDS AND COMPOSITIONS AS EIF4E INHIBITORS AND THE USES THEREOF” (Ribometrix, Inc., priority 2022, published 2024).

The structures appear in SMILES notation. Some results are limits rather than exact numbers.

One experiment deals with T1, human eIF4E protein (Homo sapiens, UniProt P06730).
T1 construct: purchased Novus NBP-45314
As to the kind of experiment: Biochemical competitive binding assay (TR-FRET competition, EDA-m7GDP-ATTO-647N probe). The following applies: read-out: hEIF4E TR-FRET IC50. In a few lines:
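IC50 values come from 4-parameter fits of the normalized 665/620 nm TR-FRET ratio. Compound was first incubated 15 min with 4 nM recombinant His-eIF4E bound to 2.5 nM Eu-anti-His antibody, then 15 min with 5 nM m7GDP-ATTO-647N tracer, in pH 7.5 HEPES buffer with 100 mM KCl, Tween-20 and BSA.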
Background: Time-resolved FRET reads energy transfer from a long-lived donor to a nearby acceptor.

Experiment [1] relates to cap-dependent translation in Flp-In-293 reporter cells. As to the kind of experiment: Cellular cap-dependent translation inhibition assay (dual luciferase assay, DLA; Fluc/Rluc ratio, 24 hours). It counts as cell-based. Particulars: Homo sapiens, Flp-In-293, 24 h, dual luciferase assay, Flp-In-293 reporter cells, 24 hours, Fluc/Rluc ratio; read-out: DLA 205 IC50.
Experiment [2] has as its system COLO 205 colorectal tumor cells. The experiment can be described thus: Tumor cell viability inhibition assay (CellTiter-Glo 2.0, 72 hours). The following applies: Homo sapiens, COLO 205, 72 h, COLO 205 cell viability. Type of experiment: cell-based. The gist of the method: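 IC50 derived by 4-parameter fitting after normalizing luminescence to DMSO and max-inhibition wells. Compounds tested as 11 concentrations in 4-fold steps on COLO 205 cells seeded at 1500 per well in RPMI-1640/10% FBS; ATP content measured with CellTiter-Glo 2.0 after 72 h.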
On the technique in general: ATP-based viability assays read luminescence as a measure of living cells.

T1 sequence (P06730 whole entry): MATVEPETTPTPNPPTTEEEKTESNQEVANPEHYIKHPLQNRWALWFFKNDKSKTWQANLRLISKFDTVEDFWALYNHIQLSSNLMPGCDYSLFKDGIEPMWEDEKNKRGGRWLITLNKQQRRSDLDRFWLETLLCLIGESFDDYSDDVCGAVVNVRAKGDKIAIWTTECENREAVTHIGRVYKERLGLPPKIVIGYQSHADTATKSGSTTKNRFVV

Take `Cc1cc(-c2cc(Cl)ccc2OCCn2c(C)nc3c(c2=O)CC(N2CC(F)(F)C2)CC3)c2scc(C(=O)NS(C)(=O)=O)c2n1` (stereo not drawn) [Compound 56]: the IC50 (usually the concentration at which inhibition is half-maximal) at human eIF4E protein was less than 0.1 µM; in experiment [1], 1 to 5 µM; in experiment [2] it was 5 to 20 µM.
For `Cc1cc(-c2cc(Cl)ccc2OCCn2c(C)nc3c(c2=O)CC(N(C)Cc2ccncc2F)CC3)c2scc(C(=O)O)c2n1` (stereo not drawn) [Compound 57], in that order: less than 0.1 µM, less than 1 µM and less than 5 µM.
The like results for `Cc1cc(-c2cc(Cl)ccc2OCCn2c(C)nc3c(c2=O)CC(N(C)CC(F)F)CC3)c2scc(C(=O)O)c2n1` (stereo not drawn) [Compound 58] were, in that order, less than 0.1 µM, less than 1 µM and less than 5 µM.
The like results for `Cc1cc(-c2cc(Cl)ccc2OCCn2c(C)nc3c(c2=O)CC(N(C)C)CC3)c2ccc(C(=O)NS(C)(=O)=O)n2n1` (stereo not drawn) [Compound 59, 4-[5-chloranyl-2-[2-[6-[di(methyl)amino]-2-methyl-4-oxidanylidene-5,6,7,8-tetrahydroquinazolin-3-yl]ethoxy]phenyl]-2-methyl-N-methylsulfonyl-pyrrolo[1,2-b]pyridazine-7-carboxamide] were, in that order, less than 0.1 µM, less than 1 µM and less than 5 µM.
As for `Cc1cc(-c2cc(Cl)ccc2OCCn2c(C)nc3c(c2=O)CC(N2CCC(F)(F)C2)CC3)c2scc(C(=O)NS(C)(=O)=O)c2n1` (stereo not drawn) [Compound 60], the IC50 on human eIF4E protein is less than 0.1 µM; in experiment [1] it was less than 1 µM; in experiment [2] it was less than 5 µM.
As for `Cc1cc(-c2cc(Cl)ccc2OCCn2c(C)nc3c(c2=O)CC(N(C)CC(F)(F)F)CC3)c2scc(C(=O)NS(C)(=O)=O)c2n1` (stereo not drawn) [Compound 61], the IC50 on human eIF4E protein is less than 0.1 µM; in experiment [1] it was less than 1 µM; in experiment [2] it was less than 5 µM.
For `Cc1cc(-c2cc(Cl)ccc2OCCn2c(C)nc3c(c2=O)CC(N2CCCCC2)CC3)c2ccc(C(=O)NS(C)(=O)=O)n2n1` (stereo not drawn) [Compound 62, 4-[5-chloranyl-2-[2-[2-methyl-4-oxidanylidene-6-(1-piperidyl)-5,6,7,8-tetrahydroquinazolin-3-yl]ethoxy]phenyl]-2-methyl-N-methylsulfonyl-pyrrolo[1,2-b]pyridazine-7-carboxamide], in that order: less than 0.1 µM, less than 1 µM and less than 5 µM.
For `Cc1cc(-c2cc(Cl)ccc2OCCn2c(C)nc3c(c2=O)CC(N(C)C2CC(F)(F)C2)CC3)c2scc(C(=O)NS(C)(=O)=O)c2n1` (stereo not drawn) [Compound 63], in that order: less than 0.1 µM, less than 1 µM and less than 5 µM.
The like results for `Cc1cc(-c2cc(Cl)ccc2OCCn2c(C)nc3c(c2=O)CC(N(C)C2CN(CC(F)(F)F)C2)CC3)c2scc(C(=O)O)c2n1` (stereo not drawn) [Compound 64, 7-[5-chloranyl-2-[2-[2-methyl-6-[methyl-[1-[2,2,2-tris(fluorenyl)ethyl]azetidin-3-yl]amino]-4-oxidanylidene-5,6,7,8-tetrahydroquinazolin-3-yl]ethoxy]phenyl]-5-methyl-thieno[3,2-b]pyridine-3-carboxylic acid; 2,2,2-tris(fluorenyl)acetic acid] were, in that order, less than 0.1 µM, less than 1 µM and less than 5 µM.
In the case of `Cc1cc(-c2cc(Cl)ccc2OCCn2c(C)nc3c(c2=O)CC(N(C)CC(F)F)CC3)c2scc(C(=O)NS(C)(=O)=O)c2n1` (stereo not drawn) [Compound 65], the half-inhibitory concentration (IC50) was less than 0.1 µM at human eIF4E protein, less than 1 µM in experiment [1] and less than 5 µM in experiment [2].
For `Cc1cc(-c2cc(Cl)ccc2OCCn2c(C)nc3c(c2=O)CC(N(C)C2CNC2)CC3)c2scc(C(=O)O)c2n1` (stereo not drawn) [Compound 66, 7-[2-[2-[6-[azetidin-3-yl(methyl)amino]-2-methyl-4-oxidanylidene-5,6,7,8-tetrahydroquinazolin-3-yl]ethoxy]-5-chloranyl-phenyl]-5-methyl-thieno[3,2-b]pyridine-3-carboxylic acid; 2,2,2-tris(fluorenyl)acetic acid], in that order: less than 0.1 µM, greater than 5 µM and greater than 20 µM.
The like results for `Cc1cc(-c2cc(Cl)ccc2OCCn2c(C)nc3c(c2=O)CC(N(C)Cc2ccncc2)CC3)c2scc(C(=O)NS(C)(=O)=O)c2n1` (stereo not drawn) [Compound 68] were, in that order, less than 0.1 µM, less than 1 µM and less than 5 µM.
For `Cc1cc(-c2cc(Cl)ccc2OCCn2c(C)nc3c(c2=O)CC(N(C)C2CCCCC2)CC3)c2scc(C(=O)O)c2n1` (stereo not drawn) [Compound 69], in that order: less than 0.1 µM, less than 1 µM and less than 5 µM.
On to `Cc1cc(-c2cc(Cl)ccc2OCCn2c(C)nc3c(c2=O)CC(N(C)C(=O)C2CCN(CC(F)(F)F)CC2)CC3)c2scc(C(=O)O)c2n1` (stereo not drawn) [Compound 71], for which the half-inhibitory concentration (IC50) at human eIF4E protein was less than 0.1 µM; in experiment [1], greater than 5 µM; in experiment [2], greater than 20 µM.
Regarding `Cc1cc(-c2cc(Cl)ccc2OCCn2c(C)nc3c(c2=O)CC(N(C)C(=O)C2CN(CC(F)(F)F)C2)CC3)c2scc(C(=O)O)c2n1` (stereo not drawn) [Compound 72], the IC50 on human eIF4E protein is less than 0.1 µM; in experiment [1], greater than 5 µM; in experiment [2] it was greater than 20 µM.
The like results for `Cc1cc(-c2cc(Cl)ccc2OCCn2c(C)nc3c(c2=O)CC(N(C)C(=O)C2CN(C)C2)CC3)c2scc(C(=O)O)c2n1` (stereo not drawn) [Compound 73] were, in that order, less than 0.1 µM, greater than 5 µM and greater than 20 µM.
Regarding `Cc1cc(-c2cc(Cl)ccc2OCCn2c(C)nc3c(c2=O)CC(N(C)C(=O)C2CCN(C)CC2)CC3)c2scc(C(=O)O)c2n1` (stereo not drawn) [Compound 74], the figures for the IC50 (on human eIF4E protein; in experiment [1]; in experiment [2]) were less than 0.1 µM, greater than 5 µM and greater than 20 µM, respectively.
For `Cc1cc(-c2cc(Cl)ccc2OCCn2c(C)nc3c(c2=O)CC(N(C)Cc2ccncc2)CC3)c2sccc2n1` (stereo not drawn) [Compound 75], in that order: 0.5 to 5 µM, greater than 5 µM and 5 to 20 µM.
Consider `Cc1cc(-c2cc(Cl)ccc2OCCn2c(C)nc3c(c2=O)CC(N(C2CC2)C2CC(F)(F)C2)CC3)c2scc(C(=O)O)c2n1` (stereo not drawn) [Compound 76], for which the concentration for half-maximal inhibition (IC50) at human eIF4E protein is less than 0.1 µM; in experiment [1], less than 1 µM; in experiment [2] it was less than 5 µM.
The like results for `Cc1cc(-c2cc(Cl)ccc2OCCn2c(C)nc3c(c2=O)CC(N(C)C2CCOCC2)CC3)c2scc(C(=O)O)c2n1` (stereo not drawn) [Compound 77] were, in that order, less than 0.1 µM, less than 1 µM and 5 to 20 µM.
The like results for `Cc1cc(-c2cc(Cl)ccc2OCCn2c(C)nc3c(c2=O)CC(N2CC4COCC4C2)CC3)c2sccc2n1` (stereo not drawn) [Compound 78] were, in that order, 0.1 to 0.5 µM, 1 to 5 µM and greater than 20 µM.
Turning to `COC1CCN(C2CCc3nc(C)n(CCOc4ccc(Cl)cc4-c4cc(C)nc5c(C(=O)NS(C)(=O)=O)csc45)c(=O)c3C2)CC1` (stereo not drawn) [Compound 79], the IC50 was less than 0.1 µM at human eIF4E protein, less than 1 µM in experiment [1] and less than 5 µM in experiment [2].
For `Cc1cc(-c2cc(Cl)ccc2OCCn2c(C)nc3c(c2=O)CC(N(C)C2CCCC2)CC3)c2scc(C(=O)O)c2n1` (stereo not drawn) [Compound 80], in that order: less than 0.1 µM, less than 1 µM and less than 5 µM.
The like results for `Cc1cc(-c2cc(Cl)ccc2OCCn2c(C)nc3c(c2=O)CC(N2CCCC(F)(F)C2)CC3)c2scc(C(=O)NS(C)(=O)=O)c2n1` (stereo not drawn) [Compound 81] were, in that order, less than 0.1 µM, less than 1 µM and less than 5 µM.
